What was measured:
[1] = Pharmacokinetic study of orally administered THAP in rats (LC-MS/MS of plasma, noncompartmental analysis); assay type: in vivo, Sprague Dawley rats; conditions: for AUC(0-t) / Cmax / Tmax / half-life: plasma, rat, mean ± SD, n = 5
Protocol: (§1) Healthy Sprague Dawley rats (n = 15, mean ± SD weight 261.4 ± 6.8 g) and beagle dogs (n = 10, mean ± SD weight 9.85 ± 0.60 kg) were purchased from Orient Bio Inc. (Seongnam, Korea). The animals were kept in a light-controlled room at 22 ± 2 °C with relative humidity of 55 ± 5% in the Animal Center of Korea Preclinical Center (Gyeonggi-do, Korea). The pharmacokinetic study protocols (KPC-E2019099 for rats and KPC-M2019046 for dogs) were approved by the Animal Care and Use Committee of the Korea Preclinical Center (Gyeonggi-do, Korea).
(§2) Chromatographic separation was performed using an Agilent 1200 Series HPLC (Agilent Technologies, Inc., Palo Alto, CA, USA) system with a Gemini C18 column (50 × 2.0 mm, 3 µm, Phenomenex, Torrance, CA, USA) protected by a guard column at 40 °C. The mobile phase composed of 10 mM ammonium formate in water and methanol (10:90, v/v) was isocratically pumped into the HPLC system at a flow rate of 0.2 mL/min with a total run time of 2.5 min. The column was eluted into an API 4000 triple quadrupole mass spectrometer (Applied Biosystems, Framingham, Massachusetts, USA), operating in the multiple reaction monitoring (MRM) mode with a negative ion electrospray source. The optimized instrument settings were as follows: curtain gas flow of 20 L/h; collision gas flow of 6 L/h; ion source gas 1 pressure of 50 psi; ion source gas 2 pressure of 60 psi; ion spray voltage of −4500 V; and temperature of 500 °C. The precursor ions of THAP and IS were generated using declustering potentials of −100 and −75 V, respectively, and they were fragmented at a collision energy of −28 and −24 eV, respectively. The molecular mass transitions from precursor to product ion were optimized at m/z 166.89 > 82.8 for THAP and at 152.89 > 82.8 for IS. Data were processed using Analyst® program (Ver. 1.6.2, AB SCIEX, Toronto, ON, Canada).
(§3) Plasma samples were stored in a deep freezer at −70 °C and thawed at room temperature. An aliquot of each plasma sample (10 μL) was transferred to 1.75 mL microtubes (Axygen Scientific, Inc., California, USA). In each microtube, 20 μL of IS (2 μg/mL) and 500 μL of 100% cold acetonitrile were added and then vortexed for 10 min. After centrifugation at 20,800× g for 15 min, 50 μL of the supernatant was pipetted into a 2.0 mL microtube and diluted with 350 μL of 50% acetonitrile (v/v). After being vortexed for 10 min and centrifuged at 20,800× g at 4 °C for 10 min, a 2 μL aliquot was injected into the LC-MS/MS system for quantitation.
(§4) Male rats orally received a single dose of THAP (250, 500, or 750 mg/kg) dissolved in deionized water containing 2% CMC by gavages. Serial blood samples (0.22 mL each) were collected via the right jugular vein immediately before (0 h) and at 0.5, 1, 2, 3, 4, 6, 9, 12, 24, and 48 h (n = 5 per each sample time) post-dosing. Male dogs received a single oral dose of THAP tablet (500 mg) as either an immediate-release tablet (Group 1) or a sustained-release tablet (Group 2) (Table 5). Blood samples (1.0 mL) were drawn from a median vein of a forelimb at the following time points after the administration of THAP: 0.5, 1, 1.5, 2, 3, 4, 6, 8, 12, and 24 h (n = 5 per each sample time). After sampling blood from the animals, the cannula was flushed with an equal volume of heparinized saline solution (50 U/mL) to prevent coagulation and to replace the blood loss. Heparin was used as an anticoagulant throughout the study procedure. Plasma was harvested by centrifugation at 4 °C, 1700× g for 10 min and then stored at −70 °C before quantification. Noncompartmental analysis was performed to calculate the AUClast and T1/2 of THAP using WinNonlin version 8.1 (Pharsight Corporation, Mountain View, CA). The Cmax and Tmax of THAP were determined based on the individual plasma THAP concentration–time profiles.

[2] = Pharmacokinetic study of oral THAP IR or SR tablets in dogs (LC-MS/MS of plasma, noncompartmental analysis); assay type: in vivo; conditions: male, beagle; for AUC(0-t) / Cmax / Tmax / half-life: dog, plasma, po, 500 mg, mean ± SD, n = 5
Protocol: as §1, §2, §3, §4

[3] = Stability of THAP in rat plasma; assay type: in vitro ADME; conditions: for Plasma Stability (Mean %) Long-Term (−70 °C): 56 days; for Plasma Stability (Mean %) Long-Term (−70 °C) / Plasma Stability (Mean %) 4 °C (7 h) / Plasma Stability (Mean %) Autosampler (44 h, 10 °C) / Plasma Stability (Mean %) Freeze-Thaw Stability (5 Cycles) / Plasma Stability (Mean %) Room Temperature (7 h) / Plasma Stability (Mean %) −70 °C (7 h): n = 3
Protocol: (§5) The stability of THAP in rat and dog plasma was examined under the following conditions at concentrations of 0.3, 25, and 80 µg/mL (n = 3): freeze-thaw stability after five freeze-thaw cycles at −70 °C; short-term stability at room temperature, 4 °C, and −70 °C for 7 h; autosampler stability at 10 °C for 44 h; and long-term stability at −70 °C for 56 days and 32 days in rat and dog plasma, respectively. The stability of the stock solution at low (0.3 µg/mL) and high (80 µg/mL) QC concentrations (n = 3) stored at room temperature for 7 h was also tested by comparing their peak areas to those of freshly prepared stock solutions.

[4] = Stability of THAP in dog plasma; assay type: in vitro ADME; conditions: for Plasma Stability (Mean %) Long-Term (−70 °C): 32 days; for Plasma Stability (Mean %) Long-Term (−70 °C) / Plasma Stability (Mean %) 4 °C (7 h) / Plasma Stability (Mean %) Autosampler (44 h, 10 °C) / Plasma Stability (Mean %) Freeze-Thaw Stability (5 Cycles) / Plasma Stability (Mean %) Room Temperature (7 h) / Plasma Stability (Mean %) −70 °C (7 h): n = 3
Protocol: as §5

[5] = Stability of THAP stock solution at room temperature; assay type: physicochemical; conditions: room temperature 7 h, n = 3
Protocol: as §5

[6] = male, Sprague Dawley, oral 250 mg/kg aqueous solution (Group 1)
[7] = male, Sprague Dawley, oral 500 mg/kg aqueous solution (Group 2)
[8] = male, Sprague Dawley, oral 750 mg/kg aqueous solution (Group 3)
[9] = oral 500 mg THAP immediate-release tablet (Group 1)
[10] = oral 500 mg THAP sustained-release tablet (Group 2)
[11] = range over 0.3, 25 and 80 µg/mL

- AUC(0-t) [1, 6]: 80.9 ± 11.8 µg·h/mL
- Cmax [1, 6]: 64200 ± 16300 ng/mL
- Tmax [1, 6]: 0.5 h
- half-life [1, 6]: 11.3 ± 0.9 h
- AUC(0-t) [1, 7]: 150 ± 35.8 µg·h/mL
- Cmax [1, 7]: 81300 ± 32300 ng/mL
- Tmax [1, 7]: 0.5 h
- half-life [1, 7]: 8.3 ± 1.2 h
- AUC(0-t) [1, 8]: 302 ± 113 µg·h/mL
- Cmax [1, 8]: 147000 ± 44600 ng/mL
- Tmax [1, 8]: 0.5 h
- half-life [1, 8]: 8 ± 1.5 h
- concentration at 12 h ([1]; male, Sprague Dawley, rat plasma sample of R06, 12 h after oral administration of THAP 500 mg/kg, read-out: measured plasma concentration of THAP): 374 ng/mL
- plasma THAP concentrations close to the peak concentration ([1]; rats, THAP dose of 500 mg/kg and 750 mg/kg, above ULOQ): greater than 100 µg/mL
- AUC(0-t) [2, 9]: 89.9 ± 32.8 µg·h/mL
- Cmax [2, 9]: 24500 ± 5000 ng/mL
- Tmax [2, 9]: 1 ± 1.1 h
- half-life [2, 9]: 6.1 ± 4.6 h
- AUC(0-t) [2, 10]: 130 ± 49.4 µg·h/mL
- Cmax [2, 10]: 18800 ± 8500 ng/mL
- Tmax [2, 10]: 6 ± 1.6 h
- half-life [2, 10]: 6.4 ± 1.6 h
- concentration at 24 h ([2]; dog plasma sample of R05, 24 h after oral administration of THAP 500 mg immediate-release tablet, read-out: measured plasma concentration of THAP): 302 ng/mL
- Plasma Stability (Mean %) Long-Term (−70 °C) ([3]; nominal 0.3 µg/mL): 111.67%
- Plasma Stability (Mean %) 4 °C (7 h) ([3]; nominal 0.3 µg/mL): 99.22%
- Plasma Stability (Mean %) Autosampler (44 h, 10 °C) ([3]; nominal 0.3 µg/mL): 105.00%
- Plasma Stability (Mean %) Freeze-Thaw Stability (5 Cycles) ([3]; nominal 0.3 µg/mL): 101.00%
- Plasma Stability (Mean %) Room Temperature (7 h) ([3]; nominal 0.3 µg/mL): 98.22%
- Plasma Stability (Mean %) −70 °C (7 h) ([3]; nominal 0.3 µg/mL): 98.11%
- Plasma Stability (Mean %) Long-Term (−70 °C) ([3]; nominal 25 µg/mL): 104.15%
- Plasma Stability (Mean %) 4 °C (7 h) ([3]; nominal 25 µg/mL): 106.91%
- Plasma Stability (Mean %) Autosampler (44 h, 10 °C) ([3]; nominal 25 µg/mL): 104.80%
- Plasma Stability (Mean %) Freeze-Thaw Stability (5 Cycles) ([3]; nominal 25 µg/mL): 102.84%
- Plasma Stability (Mean %) Room Temperature (7 h) ([3]; nominal 25 µg/mL): 101.62%
- Plasma Stability (Mean %) −70 °C (7 h) ([3]; nominal 25 µg/mL): 109.87%
- Plasma Stability (Mean %) Long-Term (−70 °C) ([3]; nominal 80 µg/mL): 99.39%
- Plasma Stability (Mean %) 4 °C (7 h) ([3]; nominal 80 µg/mL): 100.98%
- Plasma Stability (Mean %) Autosampler (44 h, 10 °C) ([3]; nominal 80 µg/mL): 100.58%
- Plasma Stability (Mean %) Freeze-Thaw Stability (5 Cycles) ([3]; nominal 80 µg/mL): 99.62%
- Plasma Stability (Mean %) Room Temperature (7 h) ([3]; nominal 80 µg/mL): 100.47%
- Plasma Stability (Mean %) −70 °C (7 h) ([3]; nominal 80 µg/mL): 101.61%
- long-term stability at −70 °C for 56 days [3, 11]: 99.39–111.67%
- stability in the autosampler at 10 °C for 44 h [3, 11]: 100.58–105.00%
- stability over five freeze-thaw cycles [3, 11]: 99.62–102.84%
- Plasma Stability (Mean %) Long-Term (−70 °C) ([4]; nominal 0.3 µg/mL): 102.89%
- Plasma Stability (Mean %) 4 °C (7 h) ([4]; nominal 0.3 µg/mL): 111.89%
- Plasma Stability (Mean %) Autosampler (44 h, 10 °C) ([4]; nominal 0.3 µg/mL): 99.67%
- Plasma Stability (Mean %) Freeze-Thaw Stability (5 Cycles) ([4]; nominal 0.3 µg/mL): 101.33%
- Plasma Stability (Mean %) Room Temperature (7 h) ([4]; nominal 0.3 µg/mL): 109.89%
- Plasma Stability (Mean %) −70 °C (7 h) ([4]; nominal 0.3 µg/mL): 109.56%
- Plasma Stability (Mean %) Long-Term (−70 °C) ([4]; nominal 25 µg/mL): 103.95%
- Plasma Stability (Mean %) 4 °C (7 h) ([4]; nominal 25 µg/mL): 105.57%
- Plasma Stability (Mean %) Autosampler (44 h, 10 °C) ([4]; nominal 25 µg/mL): 106.75%
- Plasma Stability (Mean %) Freeze-Thaw Stability (5 Cycles) ([4]; nominal 25 µg/mL): 105.31%
- Plasma Stability (Mean %) Room Temperature (7 h) ([4]; nominal 25 µg/mL): 106.66%
- Plasma Stability (Mean %) −70 °C (7 h) ([4]; nominal 25 µg/mL): 105.88%
- Plasma Stability (Mean %) Long-Term (−70 °C) ([4]; nominal 80 µg/mL): 99.45%
- Plasma Stability (Mean %) 4 °C (7 h) ([4]; nominal 80 µg/mL): 98.87%
- Plasma Stability (Mean %) Autosampler (44 h, 10 °C) ([4]; nominal 80 µg/mL): 97.58%
- Plasma Stability (Mean %) Freeze-Thaw Stability (5 Cycles) ([4]; nominal 80 µg/mL): 98.41%
- Plasma Stability (Mean %) Room Temperature (7 h) ([4]; nominal 80 µg/mL): 98.17%
- Plasma Stability (Mean %) −70 °C (7 h) ([4]; nominal 80 µg/mL): 97.32%
- long-term stability at −70 °C for 32 days [4, 11]: 99.45–103.95%
- stability in the autosampler at 10 °C for 44 h [4, 11]: 97.58–106.75%
- stability over five freeze-thaw cycles [4, 11]: 98.41–105.31%
- mean percentage peak area of stock solution vs freshly prepared stock solution ([5]; 0.3 µg/mL): 102.15%
- mean percentage peak area of stock solution vs freshly prepared stock solution ([5]; 80 µg/mL): 100.92%
Structure (SMILES): CC(=O)c1c(O)cc(O)cc1O [THAP, 2′,4′,6′-trihydroxyacetophenone]

— publication PMC7583961, “Development and Validation of an LC-MS/MS Assay to Quantitate 2′,4′,6′-Trihydroxyacetophenone in Rat and Dog Plasma and its Application to a Pharmacokinetic Study” (Molecules, 2020)
